In PMC8224802 (Pharmaceutics, 2021):
Read-outs that look alike come from different tables or passages of the source.

Tests used:
[1] = test system: microsomal metabolism of RPG in HLM; experiment: In vitro inhibition of RPG metabolism by QCT in HLM; format: in vitro ADME, human; conditions: HLM
Experimental: The intrinsic metabolic clearance (CLint) was calculated as Vmax/Km. […] The parameter α is indicative of the inhibition type. The mixed model is a general equation that includes competitive, uncompetitive, and noncompetitive inhibition as special cases. When α = 1, the mixed model is identical to a noncompetitive inhibition. When α is very large (α→∞) or very small (α→0), the mixed model becomes identical to competitive inhibition or uncompetitive inhibition, respectively.

[2] = In vitro microsomal metabolism of RPG (disappearance) in HLM; format: in vitro ADME, human; conditions: for Km: human, human liver microsomes
Experimental: At 0, 30, and 60 min after starting the metabolic reaction, a 50 μL aliquot of the incubation mixture was sampled and transferred to a clean 1.5-mL microcentrifuge tube containing 150 μL of ice-cold acetonitrile to terminate the metabolic reaction.
The intrinsic metabolic clearance (CLint) was calculated as Vmax/Km. […] Max and Min are the initial and final Y values, respectively, and the power P represents the Hill coefficient. […] Vmax and Km are the same as those defined in Equation (2). The parameter α is indicative of the inhibition type. The mixed model is a general equation that includes competitive, uncompetitive, and noncompetitive inhibition as special cases. When α = 1, the mixed model is identical to a noncompetitive inhibition. When α is very large (α→∞) or very small (α→0), the mixed model becomes identical to competitive inhibition or uncompetitive inhibition, respectively.

Km of RPG metabolism in the Ki estimation study ([1]; QCT 0 μM): 23 µM
Km of RPG metabolism in the Ki estimation study ([1]; QCT 200 μM): 111 µM
Vmax, metabolism of RPG ([2]; HLM 0.3 mg/mL, 1–500 μM RPG, Michaelis–Menten fit): 2850 ± 417 pmol/min/mg protein
Km ([2]; Km, metabolism of RPG, HLM 0.3 mg/mL, 1–500 μM RPG, Michaelis–Menten fit): 27 to 69.4 µM
Km ([2]; Table S3, source Figure 3, read-out: Km used for estimation of R): 27 µM
Structure (SMILES): CCOc1cc(CC(=O)N[C@@H](CC(C)C)c2ccccc2N2CCCCC2)ccc1C(=O)O [RPG, Repaglinide]
